Data on 1 substance can be found in US7591997B2, “Method for determining the susceptibility of a subject to infection” (Mabtech AB, priority 2002, dated 2009).

This experiment relates to Actinobacillus actinomycetemcomitans. Briefly: Standard colony forming units (CFU) assay of LL-37 on A. actinomycetemcomitans. It is filed as cell-based. The procedure: In this study we used an isolate of Actinobacillus actinomycetemcomitans from the oral cavitas of patient (A), kindly provided by Dr A. Johansson (Umeå). Bacteria were routinely grown on tryptic soy agar (Difco) supplemented with 0.5% yeast extract (TSBY) at microaerophilic conditions. The effect of LL-37 on A. actinomycetemcomitans was tested in a standard colony forming units (CFU)-assay (Tanaka et al., Oral Microbiol Immunol. 2000;15(4):226-31) by incubating 10^5 bacteria for 90 min with 20 μg/ml of synthetic LL-37 in 10 mM phosphate buffer pH 7.2 with 1% TSBY.

In the case of “LL-37: Human cathelicidin-type antibacterial peptide encoded by the CAMP gene, SEQ ID NO: 3; released from the proform cathelin-LL-37 (LLGDFFRKSKEKIGKEFKRIVQRIKDFLRNLVPRTES; homo sapiens)”, where the note is “20 μg/ml LL-37 for 90 min, 10^5 bacteria, isolate from patient (A), 10 mM phosphate buffer pH 7.2 with 1% TSBY”, the “reduction in colony counts” value was 3-4 log. Further, under “A. actinomycetemcomitans isolated from patient (A)”, the “effect on growth of the bacteria in vitro” value is “could stop the growth”.
